Test [1] deals with rat aortic smooth muscle rings. As to the kind of experiment: Relaxation of phenylephrine-contracted rat aortic smooth muscle rings. The conditions noted are these: rings precontracted with 10 μM phenylephrine. The procedure: Male Sprague-Dawley rats (Charles River Laboratories (Wilmington, Mass.) were euthanized by intraperiton injection of a high dose of sodium pentobarbitone (80–100 mg/kg). The thoracic aorta was rapidly excised and immediately placed in a Petri dish containing warm (37° C.) oxygenated (95% O2 and 5% CO2) Kreb's buffer (composition per millimolar: NaCl (119); KCl (4.69); CaCl2.H2O (2.52); MgSO4.7H2O (0.57); NaHCO3 (25); NaH2PO4.H2O (1.01) and glucose (11.1). Under a stereoscopic dissecting microscope, the aorta was cleaned, freed from adhering fat and connective tissues. The tissue was cut into ring segments, each approximately 2–3 mm in length.
For experiments to measure relaxation of the tissue under various conditions, a stainless steel tissue holder and an U-shaped stainless steel wire were inserted into the lumen of the aortic ring. The tissue holder anchored the ring at the bottom of the organ bath whereas the end of the U-shaped steel wire was tied with fine silk thread so that it connected to the FT-202 transducer. The tissue holder and the steel wire along with the aortic ring were then suspended in a 5-mL double-jacketed temperature-controlled glass organ bath (Radnoti Glass Technology, Inc., Monrovia, Calif.) filled with fresh Kreb's buffer. A mixture of 95% O2 and 5% CO2 was bubbled through a porous sintered disc at the bottom of the bath. The rings were given an initial resting tension of 1.5 g and the preparation was allowed to equilibrate at the initial tension for about 90 minutes. During this equilibration period, the bath fluid was changed every 15 minutes and replaced with fresh prewarmed (37° C.) Kreb's buffer. The isometric tension of the aortic muscle at rest and its response to different stimuli were recorded on a Power Macintosh 6100 computer via a MacLab 8/S computer interface (CB Sciences, Inc, Milford, Mass.) after an initial amplification through a low-noise ETH-400 bioamplifier (CB Sciences, Inc, Milford, Mass.). Contractile responsiveness of the tissue strips was established with 10 μM phenylephrine and the strips were incubated with the drug for 20 minutes to establish a steady level of contraction. To test the relaxation effects, test compounds were added to the phenylephrine-precontracted strips in the tissue bath at cumulative concentrations of 0.1 μM to 0.1 mM. Concentration of test compounds was increased only after relaxation at the previous concentration had reached a plateau level.

Test [2] deals with T1, human COX-2 (Homo sapiens, UniProt P35354).
T1 construct: purchased Cayman Chemical, Ann Arbor, Mich
T1 sequence (P35354 18-604): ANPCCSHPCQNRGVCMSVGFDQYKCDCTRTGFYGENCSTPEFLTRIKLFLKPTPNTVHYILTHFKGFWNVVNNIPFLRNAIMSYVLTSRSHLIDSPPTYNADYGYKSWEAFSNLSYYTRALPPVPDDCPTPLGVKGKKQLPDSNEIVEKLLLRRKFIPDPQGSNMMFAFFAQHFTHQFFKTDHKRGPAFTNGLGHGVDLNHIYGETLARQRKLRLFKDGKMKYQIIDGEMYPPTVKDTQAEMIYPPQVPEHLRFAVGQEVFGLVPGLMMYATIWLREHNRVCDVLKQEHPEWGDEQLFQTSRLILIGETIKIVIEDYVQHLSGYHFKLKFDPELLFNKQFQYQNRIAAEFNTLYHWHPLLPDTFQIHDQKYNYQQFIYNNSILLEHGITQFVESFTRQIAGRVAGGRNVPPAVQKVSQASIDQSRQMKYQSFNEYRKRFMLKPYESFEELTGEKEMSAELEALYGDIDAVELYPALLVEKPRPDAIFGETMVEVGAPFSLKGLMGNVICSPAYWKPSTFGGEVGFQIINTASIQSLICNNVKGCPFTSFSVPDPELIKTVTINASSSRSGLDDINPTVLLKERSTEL
In words: Assay for human COX-2 activity (COX Inhibitor Screening Assay, Cayman). Format: biochemical. As to conditions: human COX-2, at 10 μM. The procedure: The human COX-1 and COX-2 activities and the measurement of the prostaglandin products synthesized were performed using the COX Inhibitor Screening Assay (Cayman Chemical, Ann Arbor, Mich., which also contained the Prostaglandin Screening EIA Kit, used for prostaglandin quantification). The test compounds were dissolved at 50 times the highest final reaction concentration in DMSO or any other suitable solvent as stock solutions. These stock solutions were then diluted in the same solvent. Eight glass test tubes (13×100 mm) were placed in a 25° C. water bath. To each test tube was added 950 μL of reaction buffer (0.1 M Tris-HCl, pH 8.0, containing 5 mM EDTA, and 2 mM phenol), 10 μL of 100 µM heme solution, and 10 μL (5 units) of either human COX-1 or COX-2 and the resulting mixture incubated with the enzyme for 2 minutes. Twenty μL of the solvent was added to one tube (100% initial activity or solvent control) and 20 μL of each dilution of the test compound was added to one tube each. Each tube was vortexed immediately after the addition. The enzyme was incubated with the inhibitor for 20 minutes at 25° C. The enzymatic reaction was then initiated by the addition of 10 μL of freshly prepared 10 mM arachidonic acid (neutralized with KOH), vortexed and then incubated for 2 minutes (or, in some cases as indicated, 30 seconds) at 37° C. The reaction was terminated by the addition of 50 μL of 1 M HCl, vortexed and placed at room temperature. One hundred microliters of a saturated stannous chloride solution (50 mg/mL of 0.1 M HCl) was added and the reaction mixture was allowed to stand at room temperature for at least 5 min.
The prostaglandins (PG) produced in the reactions were assayed, after a 2,000-fold dilution, using the Prostaglandin Screening EIA Kit (Cayman Chemical, Ann Arbor, Mich.). The assay contains an antibody with broad specificity for all the prostaglandin families (PGF, PGE, PGD, and thromboxane B-type) synthesized in the COX-1/COX 2 reactions. The synthesized prostaglandin competes with a PG-tagged acetylcholine esterase tracer for binding to the PG antibody. Binding of synthesized PG lowers the colorimetric development of the Ellman's Reagent (computed as % B/B0). The actual amount of synthesized PG was interpolated from a standard curve using known amounts of supplied prostaglandin E2 (PGE2) (PGE2 concentration vs. % B/B0). The data generated were the mean±standard deviation of triplicate wells in the EIA for a single reaction at a given inhibitor concentration.

Regarding `NS(=O)(=O)c1ccc(-c2c(-c3ccccc3)noc2CO[N+](=O)[O-])cc1` [Example 2b, 4-(5-((Nitrooxy)methyl)-3-phenylisoxazol-4-yl)benzenesulfonamide], the “relaxation of aortic smooth muscle ring” value in test [1] (100 nM to 100 μM test compound) is “induced the relaxation of the aortic ring”. Moreover, the “relaxation compared with reference NO donor (ISDN or GSNO)” value in test [1] (comparator as in the value) was “comparable to that obtained with ISDN”. For the same compound, 10 µM produced 100% inhibition in test [2].

The term inhibition denotes the relative decrease from the control value, in per cent.

These data come from patent publication US7166618B2, “Nitrosated and nitrosylated cyclooxygenase-2 inhibitors, compositions and methods of use” (NitroMed, Inc., priority 1999, dated 2007).
